The source of these data is article doi:10.1101/2021.07.01.450682v1 (biorxiv, 2021).

For data set [1], the target named is T1, PfLPL3 (lysophospholipase 3; recombinant hydrolase domain) (Plasmodium falciparum, UniProt Q8IK68).
T1 sequence (Q8IK68 41-338): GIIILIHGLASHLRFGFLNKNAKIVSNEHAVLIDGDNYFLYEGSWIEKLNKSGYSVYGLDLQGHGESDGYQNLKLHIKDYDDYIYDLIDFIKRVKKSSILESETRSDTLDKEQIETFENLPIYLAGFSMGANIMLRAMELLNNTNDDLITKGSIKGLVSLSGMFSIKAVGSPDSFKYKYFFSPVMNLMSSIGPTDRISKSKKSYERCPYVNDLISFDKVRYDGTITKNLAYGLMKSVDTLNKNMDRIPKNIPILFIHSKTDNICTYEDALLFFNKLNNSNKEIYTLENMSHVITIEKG
The data set is described as follows: coupled fluorescent lysophospholipase assay. To be noted: 16:0 LPC substrate; 50 mM Tris pH 8.0, 5 mM CaCl2; 20 μg enzyme in 200 μl. In kind it is biochemical.

Substrate in the data set “purified protein”: CCCCCCCCCCCCCCCC(=O)OC[C@@H](O)COP(=O)([O-])OCC[N+](C)(C)C
The data set is described as follows: purified protein. The conditions noted are these: 50 mM Tris pH 8.0, 5 mM CaCl2, 20 μg enzyme.

`O=C(CCc1ccccc1)c1ccccc1OCC(O)CN1CCCCC1` (stereo not drawn) [PCB6, MMV009015]: the IC50 in data set [1] was found to be 1260 nM.

As for `CCOc1cc(Br)c(C(C)NC(=O)c2cccc(OC)c2)cc1OCC` (stereo not drawn) [PCB7, MMV665796], in data set [1], the IC50 amounted to 920 nM.

B1: PfLPL3 (lysophospholipase 3; recombinant hydrolase domain) (Plasmodium falciparum 3D7) (protein)
chain: T1 sequence (Q8IK68 41-338)
As for B1, the Km in “purified protein” amounted to 49.25 µM.
